Patent publication US10004701B2, “Methods and compositions for treating infection” (UNIVERSITY OF ROCHESTER, priority 2012, dated 2018)
Counter-ions that a name gives are not always drawn. Like-named read-outs stand apart in the source and are kept apart here.

How the values were obtained:
Assay in all cases: AK assay 384-well format, Prestwick library screening
E. coli = format: cell-based, Escherichia coli; settings: 50 μM final drug concentration; for fold induction at 50 µM: Escherichia coli, 3 h; for AK-based Prestwick Library Screening Results, E. coli (increase in extracellular AK activity): 384-well format
E. cloacae = format: cell-based, Enterobacter cloacae; settings: 50 μM final drug concentration; for fold induction at 50 µM: Enterobacter cloacae, 3 h; for AK-based Prestwick Library Screening Results, E. cloacae (increase in extracellular AK activity): 384-well format
[1] = system: S. aureus strain USA300-0114; format: cell-based, Staphylococcus aureus; settings: 50 μM final drug concentration; for fold induction at 50 µM: Staphylococcus aureus, USA300, 3 h; for AK-based Prestwick Library Screening Results, S. aureus (increase in extracellular AK activity): 384-well format
K. pneumoniae = format: cell-based, Klebsiella pneumoniae; settings: 50 μM final drug concentration; for fold induction at 50 µM: Klebsiella pneumoniae, 3 h; for AK-based Prestwick Library Screening Results, K. pneumoniae (increase in extracellular AK activity): 384-well format
P. aeruginosa = format: cell-based, Pseudomonas aeruginosa; settings: 50 μM final drug concentration; for fold induction at 50 µM: Pseudomonas aeruginosa, 3 h; for AK-based Prestwick Library Screening Results, P. aeruginosa (increase in extracellular AK activity): 384-well format
[2] = system: A. baumannii strain 98-37-09; format: cell-based, Acinetobacter baumannii; settings: 50 μM final drug concentration; for fold induction at 50 µM: Acinetobacter baumannii, 983709, 3 h; for AK-based Prestwick Library Screening Results, A. baumannii (increase in extracellular AK activity): 384-well format
E. faecium = format: cell-based, Enterococcus faecium; settings: 50 μM final drug concentration; for fold induction at 50 µM: Enterococcus faecium, 3 h; for AK-based Prestwick Library Screening Results, E. faecium (increase in extracellular AK activity): 384-well format
[3] = planktonic, cutoff for positive-scoring molecules 3-fold increase, read-out: AK-based Prestwick Library Screening Results, E. coli (fold increase in extracellular AK activity)
[4] = planktonic, cutoff for positive-scoring molecules 3-fold increase, read-out: AK-based Prestwick Library Screening Results, E. cloacae (fold increase in extracellular AK activity)
[5] = planktonic, cutoff for positive-scoring molecules 3-fold increase, read-out: AK-based Prestwick Library Screening Results, S. aureus (fold increase in extracellular AK activity)
[6] = planktonic, cutoff for positive-scoring molecules 3-fold increase, read-out: AK-based Prestwick Library Screening Results, K. pneumoniae (fold increase in extracellular AK activity)
[7] = planktonic, cutoff for positive-scoring molecules 3-fold increase, read-out: AK-based Prestwick Library Screening Results, P. aeruginosa (fold increase in extracellular AK activity)
[8] = planktonic, cutoff for positive-scoring molecules 3-fold increase, read-out: AK-based Prestwick Library Screening Results, A. baumannii (fold increase in extracellular AK activity)
[9] = planktonic, cutoff for positive-scoring molecules 3-fold increase, read-out: AK-based Prestwick Library Screening Results, E. faecium (fold increase in extracellular AK activity)
[10] = planktonic, […], read-out: AK-based Prestwick Library Screening Results, E. coli (fold increase in extracellular AK activity)
[11] = planktonic, […], read-out: AK-based Prestwick Library Screening Results, E. cloacae (fold increase in extracellular AK activity)
[12] = planktonic, […], read-out: AK-based Prestwick Library Screening Results, S. aureus (fold increase in extracellular AK activity)
[13] = planktonic, […], read-out: AK-based Prestwick Library Screening Results, K. pneumoniae (fold increase in extracellular AK activity)
[14] = planktonic, […], read-out: AK-based Prestwick Library Screening Results, P. aeruginosa (fold increase in extracellular AK activity)
[15] = planktonic, […], read-out: AK-based Prestwick Library Screening Results, A. baumannii (fold increase in extracellular AK activity)
[16] = planktonic, […], read-out: AK-based Prestwick Library Screening Results, E. faecium (fold increase in extracellular AK activity)
[17] = cutoff for positive-scoring molecules 3-fold increase

CC[C@@]1([C@@H]2O[C@@H]([C@H]3O[C@@](O)(CO)[C@H](C)C[C@@H]3C)C[C@@H]2C)CC[C@H]([C@]2(C)CC[C@]3(C[C@H](O)[C@@H](C)[C@@H]([C@@H](C)[C@@H](OC)[C@H](C)C(=O)O)O3)O2)O1 [Monensin sodium salt]
fold induction at 50 µM (E. coli; [3]): 0.9 | fold induction at 50 µM (E. cloacae; [4]): 1.1 | fold induction at 50 µM [1, 5]: 0.7 | fold induction at 50 µM (K. pneumoniae; [6]): 0.6 | fold induction at 50 µM (P. aeruginosa; [7]): 0.9 | fold induction at 50 µM [2, 8]: 0.7 | fold induction at 50 µM (E. faecium; [9]): 1.1

Oc1ccc(OCc2ccccc2)cc1 [Monobenzone]
fold induction at 50 µM (E. coli; [3]): 0.7 | fold induction at 50 µM (E. cloacae; [4]): 1.4 | fold induction at 50 µM [1, 5]: 0.6 | fold induction at 50 µM (K. pneumoniae; [6]): 0.5 | fold induction at 50 µM (P. aeruginosa; [7]): 0.7 | fold induction at 50 µM [2, 8]: 0.5 | fold induction at 50 µM (E. faecium; [9]): 0.6

C[C@H]1C(=O)O[C@@H]2CCN3CC=C(COC(=O)[C@](C)(O)[C@]1(C)O)[C@H]23 [Monocrotaline]
fold induction at 50 µM (E. coli; [10]): 1.3 | fold induction at 50 µM (E. cloacae; [11]): 1.3 | fold induction at 50 µM [1, 12]: 1 | fold induction at 50 µM (K. pneumoniae; [13]): 1 | fold induction at 50 µM (P. aeruginosa; [14]): 1.2 | fold induction at 50 µM [2, 15]: 1.2 | fold induction at 50 µM (E. faecium; [16]): 1.1

Cc1ccsc1/C=C/C1=NCCCN1C [Morantel tartrate]
fold induction at 50 µM (E. coli; planktonic E. coli, 384-well, […], read-out: AK-based Prestwick Library Screening Results: E. coli (increase in extracellular AK activity)): 1.4 | fold induction at 50 µM (E. cloacae; planktonic E. cloacae, 384-well, […], read-out: AK-based Prestwick Library Screening Results: E. cloacae (increase in extracellular AK activity)): 1.3 | fold induction at 50 µM ([1]; planktonic S. aureus, 384-well, […], read-out: AK-based Prestwick Library Screening Results: S. aureus (increase in extracellular AK activity)): 1.2 | fold induction at 50 µM (K. pneumoniae; planktonic K. pneumoniae, 384-well, […], read-out: AK-based Prestwick Library Screening Results: K. pneumoniae (increase in extracellular AK activity)): 0.9 | fold induction at 50 µM (P. aeruginosa; planktonic P. aeruginosa, 384-well, […], read-out: AK-based Prestwick Library Screening Results: P. aeruginosa (increase in extracellular AK activity)): 1.2 | fold induction at 50 µM ([2]; planktonic A. baumannii, 384-well, […], read-out: AK-based Prestwick Library Screening Results: A. baumannii (increase in extracellular AK activity)): 1.1 | fold induction at 50 µM (E. faecium; planktonic E. faecium, 384-well, […], read-out: AK-based Prestwick Library Screening Results: E. faecium (increase in extracellular AK activity)): 0.8

CCOC(=O)Nc1ccc2c(c1)N(C(=O)CCN1CCOCC1)c1ccccc1S2 [Moricizine hydrochloride]
fold induction at 50 µM (E. coli; cutoff for positive-scoring molecules 3-fold increase, read-out: AK-based Prestwick Library Screening Results, E. coli (fold increase in extracellular AK activity)): 0.6 | fold induction at 50 µM (E. cloacae; cutoff for positive-scoring molecules 3-fold increase, read-out: AK-based Prestwick Library Screening Results, E. cloacae (fold increase in extracellular AK activity)): 0.7 | fold induction at 50 µM ([1]; cutoff for positive-scoring molecules 3-fold increase, read-out: AK-based Prestwick Library Screening Results, S. aureus (fold increase in extracellular AK activity)): 0.6 | fold induction at 50 µM (K. pneumoniae; cutoff for positive-scoring molecules 3-fold increase, read-out: AK-based Prestwick Library Screening Results, K. pneumoniae (fold increase in extracellular AK activity)): 0.6 | fold induction at 50 µM (P. aeruginosa; cutoff for positive-scoring molecules 3-fold increase, read-out: AK-based Prestwick Library Screening Results, P. aeruginosa (fold increase in extracellular AK activity)): 0.6 | fold induction at 50 µM ([2]; cutoff for positive-scoring molecules 3-fold increase, read-out: AK-based Prestwick Library Screening Results, A. baumannii (fold increase in extracellular AK activity)): 0.6 | fold induction at 50 µM (E. faecium; cutoff for positive-scoring molecules 3-fold increase, read-out: AK-based Prestwick Library Screening Results, E. faecium (fold increase in extracellular AK activity)): 1

Cl.N=C(N=C(N)N)N1CCOCC1 [Moroxidine hydrochloride]
AK-based Prestwick Library Screening Results, E. coli (increase in extracellular AK activity) (E. coli; [17]): 0.5 | AK-based Prestwick Library Screening Results, E. cloacae (increase in extracellular AK activity) (E. cloacae; [17]): 0.3 | AK-based Prestwick Library Screening Results, S. aureus (increase in extracellular AK activity) [1, 17]: 0.4 | AK-based Prestwick Library Screening Results, K. pneumoniae (increase in extracellular AK activity) (K. pneumoniae; [17]): 0.4 | AK-based Prestwick Library Screening Results, P. aeruginosa (increase in extracellular AK activity) (P. aeruginosa; [17]): 0.3 | AK-based Prestwick Library Screening Results, A. baumannii (increase in extracellular AK activity) [2, 17]: 0.4 | AK-based Prestwick Library Screening Results, E. faecium (increase in extracellular AK activity) (E. faecium; [17]): 0.8

CO[C@@]1(NC(=O)C(C(=O)O)c2ccc(O)cc2)C(=O)N2C(C(=O)O)=C(CSc3nnnn3C)CO[C@@H]21 (some centres unmarked) [Moxalactam disodium salt]
fold induction at 50 µM (E. coli; [3]): 18.1 | fold induction at 50 µM (E. cloacae; [4]): 0.8 | fold induction at 50 µM [1, 5]: 4.4 | fold induction at 50 µM (K. pneumoniae; [6]): 3.9 | fold induction at 50 µM (P. aeruginosa; [7]): 0.6 | fold induction at 50 µM [2, 8]: 0.6 | fold induction at 50 µM (E. faecium; [9]): 1.3

CC(=O)Oc1cc(C(C)C)c(OCCN(C)C)cc1C.Cl [Moxisylyte hydrochoride]
AK-based Prestwick Library Screening Results, E. coli (increase in extracellular AK activity) (E. coli; [17]): 1.2 | AK-based Prestwick Library Screening Results, E. cloacae (increase in extracellular AK activity) (E. cloacae; [17]): 1.6 | AK-based Prestwick Library Screening Results, S. aureus (increase in extracellular AK activity) [1, 17]: 1.1 | AK-based Prestwick Library Screening Results, K. pneumoniae (increase in extracellular AK activity) (K. pneumoniae; [17]): 1.0 | AK-based Prestwick Library Screening Results, P. aeruginosa (increase in extracellular AK activity) (P. aeruginosa; [17]): 1.1 | AK-based Prestwick Library Screening Results, A. baumannii (increase in extracellular AK activity) [2, 17]: 1.1 | AK-based Prestwick Library Screening Results, E. faecium (increase in extracellular AK activity) (E. faecium; [17]): 0.9

COc1nc(C)nc(Cl)c1N=C1NCCN1 [Moxonidine]
fold induction at 50 µM (E. coli; planktonic E. coli, positive cutoff 3-fold increase, read-out: AK-based Prestwick library screening result, E. coli (fold increase in extracellular AK activity)): 1.1 | fold induction at 50 µM (E. cloacae; planktonic E. cloacae, positive cutoff 3-fold increase, read-out: AK-based Prestwick library screening result, E. cloacae (fold increase in extracellular AK activity)): 1.8 | fold induction at 50 µM ([1]; planktonic S. aureus, positive cutoff 3-fold increase, read-out: AK-based Prestwick library screening result, S. aureus (fold increase in extracellular AK activity)): 1 | fold induction at 50 µM (K. pneumoniae; planktonic K. pneumoniae, positive cutoff 3-fold increase, read-out: AK-based Prestwick library screening result, K. pneumoniae (fold increase in extracellular AK activity)): 1.1 | fold induction at 50 µM (P. aeruginosa; planktonic P. aeruginosa, positive cutoff 3-fold increase, read-out: AK-based Prestwick library screening result, P. aeruginosa (fold increase in extracellular AK activity)): 1.1 | fold induction at 50 µM ([2]; planktonic A. baumannii, positive cutoff 3-fold increase, read-out: AK-based Prestwick library screening result, A. baumannii (fold increase in extracellular AK activity)): 1.1 | fold induction at 50 µM (E. faecium; planktonic E. faecium, positive cutoff 3-fold increase, read-out: AK-based Prestwick library screening result, E. faecium (fold increase in extracellular AK activity)): 0.9

COc1c(C)c2c(c(O)c1C/C=C(\C)CCC(=O)O)C(=O)OC2 [Mycophenolic acid]
fold induction at 50 µM (E. coli; planktonic, cutoff for positive 3-fold increase, read-out: AK-based Prestwick Library Screening Results, E. coli (fold increase in extracellular AK activity)): 1.2 | fold induction at 50 µM (E. cloacae; planktonic, cutoff for positive 3-fold increase, read-out: AK-based Prestwick Library Screening Results, E. cloacae (fold increase in extracellular AK activity)): 1.3 | fold induction at 50 µM ([1]; planktonic, cutoff for positive 3-fold increase, read-out: AK-based Prestwick Library Screening Results, S. aureus (fold increase in extracellular AK activity)): 1.1 | fold induction at 50 µM (K. pneumoniae; planktonic, cutoff for positive 3-fold increase, read-out: AK-based Prestwick Library Screening Results, K. pneumoniae (fold increase in extracellular AK activity)): 1.5 | fold induction at 50 µM (P. aeruginosa; planktonic, cutoff for positive 3-fold increase, read-out: AK-based Prestwick Library Screening Results, P. aeruginosa (fold increase in extracellular AK activity)): 1.2 | fold induction at 50 µM ([2]; planktonic, cutoff for positive 3-fold increase, read-out: AK-based Prestwick Library Screening Results, A. baumannii (fold increase in extracellular AK activity)): 1.2 | fold induction at 50 µM (E. faecium; planktonic, cutoff for positive 3-fold increase, read-out: AK-based Prestwick Library Screening Results, E. faecium (fold increase in extracellular AK activity)): 1.1

c1cncc(C2=NCCC2)c1 [Myosmine]
fold induction at 50 µM (E. coli; [10]): 0.5 | fold induction at 50 µM (E. cloacae; [11]): 0.4 | fold induction at 50 µM [1, 12]: 0.4 | fold induction at 50 µM (K. pneumoniae; [13]): 0.5 | fold induction at 50 µM (P. aeruginosa; [14]): 0.4 | fold induction at 50 µM [2, 15]: 0.5 | fold induction at 50 µM (E. faecium; [16]): 0.9
